Measurements taken from the NIST ThermoML archive (doi:10.1016/j.jct.2015.09.003).
± gives the expanded uncertainty stated by the source.

Assays:
[1] = Crystal; DTA
[2] = Molar enthalpy of transition or fusion; conditions: Crystal; DSC

Normal melting temperature [1] [°C] | Molar enthalpy of transition or fusion [2] [kcal/mol] | Compound
202.2 ± 0.6 | 6.69 ± 0.151 | CC(C)(C)C1=CC=C(C(C)(C)C)C(=O)C1=O [3,6-di-tert-butyl-o-benzoquinone]
115.4 ± 0.6 | 6.26 ± 0.141 | CC(C)(C)C1=CC(=O)C(=O)C(C(C)(C)C)=C1 [3,5-di-tert-butyl-o-benzoquinone]
